# From publication PMC11203657, “Glyphosate-Induced Phosphonatase Operons in Soil Bacteria of the Genus Achromobacter” (International Journal of Molecular Sciences, 2024)
# Where two headings read alike, the source gives them in different places.
# T1: PhnX19-II (Achromobacter insolitus, UniProt Z9I4E4M620)
# T1 construct: native, purified from wild-type strain, untagged; homodimer; MALDI match to OAD13647.1
# T1 sequence (Z9I4E4M620 1-273): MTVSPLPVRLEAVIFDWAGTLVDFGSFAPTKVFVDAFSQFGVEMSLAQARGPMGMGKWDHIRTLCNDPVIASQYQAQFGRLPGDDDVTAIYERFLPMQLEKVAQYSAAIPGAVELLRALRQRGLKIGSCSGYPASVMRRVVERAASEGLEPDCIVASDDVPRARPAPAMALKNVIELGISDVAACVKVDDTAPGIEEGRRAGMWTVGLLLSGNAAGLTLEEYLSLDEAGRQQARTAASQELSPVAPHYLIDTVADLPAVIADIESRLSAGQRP
# T2: PhnX19-I (Achromobacter insolitus, UniProt Z9I4E4M620)
# T2 construct: native, purified from wild-type strain, untagged; homodimer; MALDI match to OAD13647.1
# T2 sequence (Z9I4E4M620 1-273): T1 sequence (Z9I4E4M620 1-273)
# T3: PhnX16 (Achromobacter aegrifaciens, UniProt A0ABU2D8D6)
# T3 construct: gene phnX; native, purified from wild-type strain, untagged; subunit ~31 kDa, homodimer ~60-65 kDa
# T3 sequence (A0ABU2D8D6 4-276): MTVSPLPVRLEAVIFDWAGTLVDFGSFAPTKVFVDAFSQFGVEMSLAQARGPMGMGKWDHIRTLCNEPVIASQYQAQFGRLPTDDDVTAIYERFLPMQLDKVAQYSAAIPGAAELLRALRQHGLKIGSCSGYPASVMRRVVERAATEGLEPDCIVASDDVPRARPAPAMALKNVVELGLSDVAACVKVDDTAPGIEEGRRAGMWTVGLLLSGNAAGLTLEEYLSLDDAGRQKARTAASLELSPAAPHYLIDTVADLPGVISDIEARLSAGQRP
# B1: PhnX16 (Achromobacter aegrifaciens) (protein)
# chain: T3 sequence (A0ABU2D8D6 4-276)
# notes: native, purified from wild-type strain, untagged; subunit ~31 kDa, homodimer ~60-65 kDa
# B2: PhnX16R (Achromobacter aegrifaciens) (protein)
# chain: T3 sequence (A0ABU2D8D6 4-276)
# notes: recombinant full length, C-terminal His6 tag kept, pET-22b without pelB, E. coli BL21(DE3); homodimer
# Legend:
# PhnX19-II = target: T1, PhnX19-II; assay: inhibition kinetics, ADH/NADH-coupled PAA hydrolysis, vector method; type: biochemical; details: substrate PAA 0.1-5 mM, pH 7.5, 10 mM MgCl2, 25 °C
# Excerpt: inhibition kinetics, ADH/NADH-coupled PAA hydrolysis, vector method on PhnX19-II
# PhnX19-I = target: T2, PhnX19-I; assay: as above; type: biochemical; details: substrate PAA 0.1-5 mM, pH 7.5, 10 mM MgCl2, 25 °C
# Excerpt: inhibition kinetics, ADH/NADH-coupled PAA hydrolysis, vector method on PhnX19-I
# PhnX16 [1] = target: T3, PhnX16; assay: activation kinetics, ADH/NADH-coupled PAA hydrolysis, vector method; type: biochemical; details: substrate PAA 0.1-5 mM, pH 7.5, 10 mM MgCl2, 25 °C; Ka is an activation constant; competitive-type activator
# Excerpt: activation kinetics, ADH/NADH-coupled PAA hydrolysis, vector method on PhnX16
# PhnX16 [2] = target: T3, PhnX16; assay: inhibition kinetics, ADH/NADH-coupled PAA hydrolysis, vector method; type: biochemical
# Excerpt: inhibition kinetics, ADH/NADH-coupled PAA hydrolysis, vector method on PhnX16
# purified protein = substrate: O=CCP(=O)(O)O; assay: purified protein; type: biochemical, Achromobacter aegrifaciens; details: pH 7.5, 50 mM Tris-HCl, 10 mM MgCl2, 0.1 mM DTT, 25 °C
# [3] = noncompetitive in table, uncompetitive in text, read-out: Effectors / 2,4-DNPA
# [4] = noncompetitive inhibitor, read-out: Effectors / BPA
# [5] = uncompetitive inhibitor, read-out: Effectors / GP
# [6] = competitive inhibitor, read-out: Effectors / 2-AEP
molecule,measurement,setting,value
"CC(=O)Oc1ccc([N+](=O)[O-])cc1[N+](=O)[O-] [2,4-DNPA, 2,4-dinitrophenyl acetate]",Ki,PhnX19-II; [3],760 µM
same,Ki,PhnX19-I; [3],730 µM
"NCP(=O)(O)O [AMPA, aminomethylphosphonic acid]",Ka (activation constant),PhnX16 [1],43.5 mM
"CCCCP(=O)(O)O [BPA, butylphosphonic acid]",Ki,PhnX16 [2],750 µM
same,Ki,PhnX19-II; [4],300 µM
same,Ki,PhnX19-I; [4],390 µM
"O=C(O)CNCP(=O)(O)O [GP, N-phosphonomethylglycine]",Ki,PhnX16 [2]; read-out: Effectors / GP,11600 µM
same,Ki,PhnX19-II; [5],5400 µM
same,Ki,PhnX19-I; [5],4000 µM
"NCCP(=O)(O)O [compound 1, 2-aminoethylphosphonic acid]",Ki,PhnX19-II; [6],2480 µM
same,Effectors / 2-AEP,PhnX16 [1],21 mM
same,Ki,PhnX19-I; [6],2200 µM
B1,Km,purified protein,889 ± 138 µM
same,Vmax,purified protein,1.2 µmol/min/mg
same,kcat,purified protein,0.6 ± 0.1 s⁻¹
same,kcat/Km,purified protein,670 M⁻¹ s⁻¹
B2,Km,purified protein,641 ± 23 µM
same,Vmax,purified protein,1.12 µmol/min/mg
same,kcat,purified protein,0.56 ± 0.05 s⁻¹
same,kcat/Km,purified protein,875 M⁻¹ s⁻¹
